Results as given in publication PMC6332448, “SAR Studies Leading to the Identification of a Novel Series of Metallo-β-lactamase Inhibitors for the Treatment of Carbapenem-Resistant Enterobacteriaceae Infections That Display Efficacy in an Animal Infection Model” (ACS Infectious Diseases, 2018).
Like-named read-outs stand apart in the source and are kept apart here.

Key:
IMP-1 = IMP-1 (Serratia marcescens, UniProt P52699); experiment: biochemical; type: biochemical
NDM-1 = NDM-1 (Klebsiella pneumoniae, UniProt C7C422); experiment: biochemical; type: biochemical; conditions: 10 mM HEPES pH 7.5, 25 °C, average of at least two independent assays
Chain of NDM-1 (C7C422 29-270, looked up, species assumed): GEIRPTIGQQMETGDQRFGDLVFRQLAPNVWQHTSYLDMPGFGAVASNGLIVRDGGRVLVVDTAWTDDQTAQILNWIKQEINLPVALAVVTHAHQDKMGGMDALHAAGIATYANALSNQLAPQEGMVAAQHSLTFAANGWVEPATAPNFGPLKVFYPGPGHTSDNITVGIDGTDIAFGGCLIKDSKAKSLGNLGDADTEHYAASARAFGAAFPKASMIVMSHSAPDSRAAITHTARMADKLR

VIM-1 = VIM-1 (Pseudomonas aeruginosa, UniProt A0A0F7KYQ8); experiment: biochemical; type: biochemical
VIM-2 = VIM-2 (Escherichia coli, UniProt Q5U7L7); experiment: biochemical
[1] = system: IMP-1-producing strain K. pneumoniae NTBC062; experiment: Whole-cell meropenem potentiation, CLSI broth microdilution MIC; type: cell-based, Klebsiella pneumoniae; conditions: no inhibitor, K. pneumoniae NTBC062 (IMP-1)
Procedure: (§1) Minimal inhibitory concentrations (MIC) were determined using the Clinical Laboratory Standards Institute (CLSI) broth microdilution procedure. MBL-positive Enterobacteriaceae clinical isolates tested in the susceptibility study included NDM-1-producing strain E. coli NTBC121, VIM-1-producing strain K. pneumoniae NTBC055, and IMP-1-producing strain K. pneumoniae NTBC062. (Individual MICs for all strains tested are presented in Table 2 and Table 1 in the Supporting Information).

[2] = system: VIM-1-producing strain Klebsiella pneumoniae NTBC055; experiment: as above; type: cell-based; conditions: no inhibitor, K. pneumoniae NTBC055 (VIM-1)
Procedure: as §1

[3] = system: NDM-1-producing strain Escherichia coli NTBC121; experiment: as above; type: cell-based; conditions: no inhibitor, E. coli NTBC121 (NDM-1)
Procedure: as §1

[4] = 300 μM imipenem, 10 mM HEPES pH 7.5, 25 °C, average of at least two independent assays, read-out: IMP-1 IC50
[5] = 300 μM imipenem, read-out: NDM-1 IC50
[6] = 300 μM imipenem, 10 mM HEPES pH 7.5, 25 °C, average of at least two independent assays, read-out: VIM-1 IC50

Chain of IMP-1 (P52699 19-246, looked up, species assumed): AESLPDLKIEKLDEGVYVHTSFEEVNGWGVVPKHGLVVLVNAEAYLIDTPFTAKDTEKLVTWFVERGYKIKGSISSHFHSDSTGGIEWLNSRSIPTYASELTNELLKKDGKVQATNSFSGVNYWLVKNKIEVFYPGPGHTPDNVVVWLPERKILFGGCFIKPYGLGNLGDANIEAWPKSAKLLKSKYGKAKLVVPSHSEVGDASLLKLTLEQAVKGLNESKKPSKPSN

Row | Compound | IC50 (IMP-1; [4]) | IC50 (NDM-1; [5]) | IC50 (VIM-1; [6]) | also measured
1 | O=C(O)c1ncccc1NS(=O)(=O)Cc1cccc(F)c1 [Compound 36] | 152 µM | > 200 µM | 108 µM | –
2 | O=C(O)c1ncccc1NS(=O)(=O)Cc1ccc(Cl)cc1 [Compound 42] | 146 µM | 18.4 µM | 88.4 µM | –
3 | O=C(O)c1ncccc1NS(=O)(=O)Cc1ccc([N+](=O)[O-])cc1 [Compound 44] | > 200 µM | 120 µM | > 200 µM | –
4 | COc1cccc(S(=O)(=O)Nc2cccc(C(=O)O)n2)c1 [Compound 45] | > 200 µM | 43.3 µM | > 200 µM | –
5 | O=C(O)c1cccc(NS(=O)(=O)Cc2ccccc2)n1 [Compound 46] | > 200 µM | 43.7 µM | > 200 µM | –
6 | CS(=O)(=O)Nc1cccc(C(=O)O)n1 [Compound 47] | > 200 µM | 32.8 µM | > 200 µM | –
7 | O=C(O)c1cccc(C(=O)NCc2nccs2)n1 [Compound 48] | > 200 µM | > 200 µM | > 200 µM | –
8 | CCCCNC(=O)c1cccc(C(=O)O)n1 [Compound 49] | > 200 µM | > 200 µM | > 200 µM | –
9 | COc1cccc(CC(=O)Nc2ccnc(C(=O)O)c2)c1 [Compound 50] | > 200 µM | 35.3 µM | > 200 µM | –
10 | CCCCC(=O)Nc1ccnc(C(=O)O)c1 [Compound 51] | > 200 µM | 11.5 µM | > 200 µM | –
11 | O=C(Cc1ccccc1)Nc1ccnc(C(=O)O)c1 [Compound 52] | > 200 µM | 11.6 µM | > 200 µM | –
12 | O=C(Cc1cccs1)Nc1ccnc(C(=O)O)c1 [Compound 53] | > 200 µM | 43 µM | > 200 µM | –
13 | O=C(O)c1cc(NS(=O)(=O)Cc2ccccc2)ccn1 [Compound 54] | > 200 µM | 65 µM | > 200 µM | –
14 | O=C(O)c1cc(NS(=O)(=O)c2ccccc2)ccn1 [Compound 55] | > 200 µM | 145 µM | > 200 µM | –
15 | O=C(Cc1ccccc1)Nc1ccc(C(=O)O)nc1 [Compound 56] | > 200 µM | 21.4 µM | > 200 µM | –
16 | O=C(Cc1ccc(F)cc1)Nc1ccc(C(=O)O)nc1 [Compound 57] | > 200 µM | 27.9 µM | > 200 µM | –
17 | O=C(O)c1ccc(NS(=O)(=O)Cc2ccccc2)cn1 [Compound 58] | > 200 µM | 3.99 µM | > 200 µM | –
18 | O=C(O)c1ccc(NS(=O)(=O)c2ccccc2)cn1 [Compound 59] | 114 µM | 2.17 µM | 109 µM | –
19 | N#Cc1cccc(S(=O)(=O)Nc2ccc(C(=O)O)nc2)c1 [Compound 60] | 162 µM | 7.2 µM | > 200 µM | –
20 | O=C(O)c1ncccc1NS(=O)(=O)Cc1ccccc1Cl [Compound 67] | – | – | – | IC50 (NDM-1; NDM-1 IC50, 300 μM imipenem): 32.6 µM; IC50 (VIM-1): 10.9 µM
21 | O=C(O)c1ncccc1NS(=O)(=O)Cc1ccc(Cl)c(Cl)c1 [Compound 69] | – | – | – | IC50 (IMP-1): > 200 µM; IC50 (NDM-1; NDM-1 IC50, 300 μM imipenem): > 200 µM; IC50 (VIM-1): > 200 µM
22 | O=C(O)c1ncccc1NS(=O)(=O)Cc1ccc(Cl)cc1Cl [Compound 71] | – | – | – | IC50 (IMP-1): 74.3 µM; IC50 (NDM-1; NDM-1 IC50, 300 μM imipenem): 80.6 µM; IC50 (VIM-1): 17.5 µM
23 | O=C(O)c1ncsc1NS(=O)(=O)c1ccccn1 [Compound 75] | – | – | – | IC50 (IMP-1): 114 µM; IC50 (VIM-2): 16.1 µM; IC50 (NDM-1; NDM-1 IC50, 300 μM imipenem): 12.9 µM; IC50 (VIM-1): > 200 µM
24 | O=C(O)c1ncsc1NS(=O)(=O)c1ccncc1 [Compound 77] | – | – | – | IC50 (IMP-1): 23.4 µM; IC50 (VIM-2): 1.8 µM; IC50 (NDM-1; NDM-1 IC50, 300 μM imipenem): 3.4 µM; IC50 (VIM-1): 180 µM
25 | C[C@@H](O)[C@H]1C(=O)N2C(C(=O)O)=C(S[C@@H]3CN[C@H](C(=O)N(C)C)C3)[C@H](C)[C@H]12 [meropenem, reference compound] | – | – | – | MIC ([1]; Klebsiella pneumoniae): 4 µg/mL; MIC meropenem (no inhibitor) vs NTBC062 [1]: 4 µg/mL; MIC ([2]; Klebsiella pneumoniae): 16 µg/mL; MIC meropenem (no inhibitor) vs NTBC055 [2]: 16 µg/mL; MIC ([3]; Escherichia coli): 32 µg/mL; MIC meropenem (no inhibitor) vs NTBC121 [3]: 32 µg/mL
